Like-named read-outs stand apart in the source and are kept apart here.

The term EC50 denotes the concentration at which the effect is half-maximal. Usually fraction unbound stands for free concentration divided by total concentration. A higher fraction unbound goes with much free substance. Usually Vd stands for the apparent volume that relates the amount in the body to the concentration in plasma or blood. A lower Vd goes with little distribution into tissue. For orientation: half-life means the time needed for the level to fall by half in the phase considered. A lower half-life goes with rapid decline. The term efflux ratio denotes the permeability from basolateral to apical divided by that in the opposite direction, in the common usage.

Data set [1] deals with human 5-HT2C (Homo sapiens, UniProt P28335). The following applies: % 5-HT Max, human 5-HT2C-CHO cells.
human 5-HT2C, sequence (P28335 33-458): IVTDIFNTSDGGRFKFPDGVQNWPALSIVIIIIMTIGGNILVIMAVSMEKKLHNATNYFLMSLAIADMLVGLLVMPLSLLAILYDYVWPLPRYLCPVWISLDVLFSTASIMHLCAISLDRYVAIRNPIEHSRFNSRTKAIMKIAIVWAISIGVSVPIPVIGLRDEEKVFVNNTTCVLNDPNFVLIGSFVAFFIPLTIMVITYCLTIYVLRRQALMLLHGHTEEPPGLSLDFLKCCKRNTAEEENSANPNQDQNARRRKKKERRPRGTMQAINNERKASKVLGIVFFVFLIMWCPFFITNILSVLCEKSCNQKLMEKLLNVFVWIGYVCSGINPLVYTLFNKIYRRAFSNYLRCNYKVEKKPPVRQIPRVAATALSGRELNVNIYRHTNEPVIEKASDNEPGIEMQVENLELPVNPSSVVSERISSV
The conditions of data set [2]: predicted hepatic clearance, human hepatic microsomes.
Data set [3] addresses human 5-HT2A (Homo sapiens, UniProt P28223). The following applies: for 5-HT2A % Max: % 5-HT Max, human 5-HT2A-CHO cells; for higher agonist potency for 5-HT2B and 5-HT2C relative to 5-HT2A: compared with 5-HT2A potency.
For data set [4], the target named is human 5-HT2B (Homo sapiens, UniProt P41595). The following applies: % 5-HT Max, human 5-HT2B-HEK293 cells.
human 5-HT2B, sequence (P41595 whole entry): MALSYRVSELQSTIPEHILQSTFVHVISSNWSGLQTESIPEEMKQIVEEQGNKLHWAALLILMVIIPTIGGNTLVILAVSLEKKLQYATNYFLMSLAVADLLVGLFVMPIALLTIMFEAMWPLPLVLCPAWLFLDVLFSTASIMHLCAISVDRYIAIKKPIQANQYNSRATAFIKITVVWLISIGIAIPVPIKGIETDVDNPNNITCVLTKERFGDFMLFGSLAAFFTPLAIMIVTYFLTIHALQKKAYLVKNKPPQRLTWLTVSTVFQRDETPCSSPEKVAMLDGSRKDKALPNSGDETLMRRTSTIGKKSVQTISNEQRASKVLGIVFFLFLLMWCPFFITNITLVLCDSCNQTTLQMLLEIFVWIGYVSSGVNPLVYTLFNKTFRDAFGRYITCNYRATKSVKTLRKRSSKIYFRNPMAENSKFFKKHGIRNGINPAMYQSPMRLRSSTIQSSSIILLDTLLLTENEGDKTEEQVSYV
Data set [5] concerns 5-HT2B. The conditions noted are these: read-out: 5-HT2B EC50; previously described, patent application ref 20; cited from earlier work.
The nature of data set [6]: in vitro. The conditions noted are these: human, plasma, pH 7.4.
In data set [7] the target is T1, P-gp (Homo sapiens, UniProt P08183). The conditions noted are these: MDCK-MDR1 cells, 5 µM.
T1 sequence (P08183 whole entry): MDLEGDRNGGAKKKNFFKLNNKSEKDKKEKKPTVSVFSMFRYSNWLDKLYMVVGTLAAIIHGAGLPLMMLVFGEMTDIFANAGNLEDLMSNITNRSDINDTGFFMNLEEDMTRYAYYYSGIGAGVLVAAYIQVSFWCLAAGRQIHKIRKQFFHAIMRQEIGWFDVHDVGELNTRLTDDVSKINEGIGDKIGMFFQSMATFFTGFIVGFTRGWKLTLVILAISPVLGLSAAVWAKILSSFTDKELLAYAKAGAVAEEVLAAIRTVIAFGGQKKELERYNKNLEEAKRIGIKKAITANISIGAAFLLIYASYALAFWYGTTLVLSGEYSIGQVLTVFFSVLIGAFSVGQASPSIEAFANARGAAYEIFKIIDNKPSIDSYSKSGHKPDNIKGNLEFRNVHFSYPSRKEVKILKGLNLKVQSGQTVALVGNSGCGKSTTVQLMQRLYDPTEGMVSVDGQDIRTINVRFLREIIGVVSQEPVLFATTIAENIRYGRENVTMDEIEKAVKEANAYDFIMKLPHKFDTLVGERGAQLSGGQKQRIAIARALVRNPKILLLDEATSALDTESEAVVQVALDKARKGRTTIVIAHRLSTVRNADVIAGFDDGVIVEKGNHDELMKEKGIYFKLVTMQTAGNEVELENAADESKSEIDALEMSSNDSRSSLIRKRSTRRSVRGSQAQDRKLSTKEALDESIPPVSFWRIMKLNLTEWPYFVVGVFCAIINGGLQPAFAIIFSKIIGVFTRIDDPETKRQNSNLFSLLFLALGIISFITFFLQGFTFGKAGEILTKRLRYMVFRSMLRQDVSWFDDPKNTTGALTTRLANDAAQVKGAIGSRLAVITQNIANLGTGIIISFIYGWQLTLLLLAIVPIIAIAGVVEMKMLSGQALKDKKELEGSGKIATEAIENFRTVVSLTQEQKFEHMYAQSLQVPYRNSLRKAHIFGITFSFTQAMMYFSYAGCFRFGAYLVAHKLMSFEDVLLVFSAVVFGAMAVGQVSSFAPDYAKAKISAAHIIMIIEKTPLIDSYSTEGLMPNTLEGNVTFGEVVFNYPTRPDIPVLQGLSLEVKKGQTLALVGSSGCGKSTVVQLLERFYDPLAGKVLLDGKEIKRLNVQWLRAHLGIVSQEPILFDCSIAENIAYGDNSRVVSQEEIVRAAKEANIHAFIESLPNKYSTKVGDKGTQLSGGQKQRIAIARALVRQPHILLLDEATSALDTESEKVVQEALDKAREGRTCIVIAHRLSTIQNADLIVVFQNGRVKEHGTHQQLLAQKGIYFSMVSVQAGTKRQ
Data set [8] can be described thus: in vitro. The following applies: mouse, plasma, pH 7.4.
The conditions of data set [9]: rat PK cassette, iv, 0.2 mg/kg.
Data set [10] in a line: in vivo. The following applies: male, Sprague Dawley, rat, iv, 0.2 mg/kg.
The nature of data set [11]: in vitro. The conditions noted are these: rat, plasma, pH 7.4.
The conditions of data set [12]: predicted hepatic clearance, rat.
Data set [13] addresses T1, P-gp. As to the kind of experiment: in vitro. The following applies: MDCK-MDR1.

human 5-HT2A, sequence (P28223 whole entry): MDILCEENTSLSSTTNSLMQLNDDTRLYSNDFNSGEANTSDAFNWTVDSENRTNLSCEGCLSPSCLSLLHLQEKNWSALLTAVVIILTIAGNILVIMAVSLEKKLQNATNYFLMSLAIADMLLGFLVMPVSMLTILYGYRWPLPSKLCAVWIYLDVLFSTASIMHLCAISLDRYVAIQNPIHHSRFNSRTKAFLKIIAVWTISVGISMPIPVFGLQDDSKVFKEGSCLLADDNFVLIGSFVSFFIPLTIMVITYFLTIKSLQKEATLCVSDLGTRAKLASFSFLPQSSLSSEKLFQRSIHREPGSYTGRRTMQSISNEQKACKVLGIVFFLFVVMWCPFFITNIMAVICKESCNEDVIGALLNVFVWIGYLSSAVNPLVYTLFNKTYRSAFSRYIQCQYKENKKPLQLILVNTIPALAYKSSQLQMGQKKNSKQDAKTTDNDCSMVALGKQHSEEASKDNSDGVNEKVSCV

Take `COc1ccc2[nH]nc(CCN(C)C)c2c1` [Compound 6a]: in data set [1], the “5-HT2C % Max” value came out at 32.1 ± 2.2%. The CLhep in data set [2] was 12.1 (mL/min)/kg. Besides, the “5-HT2A % Max” value in data set [3] was found to be 10.7 ± 0.6%. The “5-HT2B % Max” value in data set [4] is 48.0 ± 7.6%. The EC50 in data set [5] was > 10 µM.
Take `[2H]C([2H])(Cc1n[nH]c2ccc(OC)cc12)N(C)C` [Compound 6b]: in data set [1], the “5-HT2C % Max” value was 32.3%. Also, the CLhep in [2] was 11.7 (mL/min)/kg. Further, the “5-HT2A % Max” value in [3] is 11.7 ± 0.6%. Further, the “5-HT2B % Max” value in data set [4] came out at 60.5%.
On to `CN(C)CCc1n[nH]c2ccc(O)cc12` [Compound 16], for which, in data set [1], the “5-HT2C % Max” value stood at 53.3%. Also, the “5-HT2A % Max” value in data set [3] worked out at 26.2 ± 1.4%. The “5-HT2B % Max” value in data set [4] was found to be 53.7%.
With `C1=C(c2n[nH]c3ccccc23)CNCC1` [Compound 19a], the “5-HT2C % Max” value in [1] stood at 67.7 ± 6.6%. Also, in data set [3], the “5-HT2A % Max” value turned out to be 17.5 ± 3.2%; the “higher agonist potency for 5-HT2B and 5-HT2C relative to 5-HT2A” value is “approximately 10 fold”. In [4], the “5-HT2B % Max” value is 83.8 ± 1.9%.
For `Cn1nc(C2=CCCNC2)c2ccccc21` [Compound 19b], in data set [1], the “5-HT2C % Max” value turned out to be 50.3 ± 2.4%. In data set [3], the “5-HT2A % Max” value is 42.2 ± 3.7%; the “higher agonist potency for 5-HT2B and 5-HT2C relative to 5-HT2A” value was “approximately 10 fold”. In addition, the “5-HT2B % Max” value in [4] was determined as 48.0 ± 4.8%.
With `Brc1ccc2[nH]nc(C3=CCCNC3)c2c1` [Compound 19d], the fraction unbound at 6 h, 5 µM in data set [6] stood at 0.12; in data set [8], 0.12; in [11] it was 0.13. The PappA-B in [7] is on record as 7.9 10^–6 cm/s. In addition, the “5-HT2C % Max” value in [1] is given as 93.9%. In addition, the CLhep in [2] is given as 5.6 (mL/min)/kg; in data set [12] it was 58 (mL/min)/kg. Besides, the “5-HT2A % Max” value in data set [3] turned out to be 41.4 ± 3.4%. Besides, in data set [4], the “5-HT2B % Max” value turned out to be 82.8 ± 1.9%. Also, in data set [9], the CLp is reported as 34.2 (mL/min)/kg. The Kp at 0.25 h in [10] (brain) turned out to be 5.4. In data set [10] (plasma), this compound registered a Vd at 24 h of 6.33 L/kg. In [10] (plasma), the half-life at 24 h was 2.8 h. Moreover, the efflux ratio at 5 µM in data set [13] is 1.3.
Take `Nc1ccc2[nH]nc(C3=CCCNC3)c2c1` [Compound 19e]: the “5-HT2C % Max” value in data set [1] amounted to 86.9%. Further, the “5-HT2A % Max” value in data set [3] turned out to be 40.4 ± 1.3%. In addition, in [4], the “5-HT2B % Max” value is given as 96.1%.
As for `COc1ccc2[nH]nc(C3=CCCNC3)c2c1` [Compound 19f], in [1], the “5-HT2C % Max” value stood at 59.8 ± 3.2%. Besides, the “5-HT2A % Max” value in data set [3] came to 12.3 ± 1.8%. In addition, the “5-HT2B % Max” value in data set [4] was 93.6%.
